Assay results reported in US20090162351A1, “Transdiscal administration of inhibitors of p38 MAP kinase” (DePuy Spine, Inc., priority 2007, published 2009).

System: injured bovine articular cartilage explants in inflammatory medium
Experiment: Drop tower model: GAG degradation in injured cartilage explants
Format: cell-based
Design: inhibition of GAG release vs no treatment explant: dose or concentration left out as unconfirmed
Conditions: for Inhibition of GAG degradation (in words): Table 4, injured cartilage explants, inflammatory conditions; for efficacy in inhibiting GAG release (in words): drop tower model; for Inhibition of GAG degradation: at 0.1-1 μM
From the text: In order to assess cartilage breakdown by inflammatory mediators and the effect of antagonists on those mediators, a cartilage impact model (the “drop tower model”) was established using a drop tower device to apply a peak compressive stress to a cartilage sample of about 20-30 MPa over an area of about 11-15 mm^2. Advantages of this model included its clinical relevance due to its potential to mimic several key parameters of osteoarthritis such as inflammatory cell mediators (by co-culturing with inflammatory cells), and induction of trauma to create the cartilage damage.
In the “drop tower design model” cartilage explants were first injured and then cultured in inflammatory medium to mimic the progression of joint impact trauma linked to cartilage degeneration and osteoarthritis. The approach of the model is to artificially produce cellular damage without gross structural alterations, and to determine how the cells respond to such an insult over the ensuing days when treated with or without potential therapeutic agents.
The device comprises a vertical rail that guides a sliding weight from 0.1 kg to 3 kg directly onto a force transducer which is situated at the bottom of the device. A sphere-shaped 2 mm indenter resting on a specimen is located at the bottom of the vertical rail. The indenter is held by a stop screw. The specimen is rigidly attached to a tissue holder underneath the indenter, to avoid side movements, the specimen is rigidly attached to the tissue holder. In this manner, the force transducer transduces a force indirectly onto the specimen. Adjusting the weight of a mass and height from which the mass drops varies the magnitude of the intended impact. For example, a weight mass (e.g., […]) held by a weight holder can be released from a height of e.g., 36 cm and dropped onto the force transducer.
Samples for compound evaluation were tested using either of two different methods to induce inflammatory conditions. One method utilized media conditioned from peripheral blood mononuclear cells (PBMCs) stimulated with LPS (“+LPS”) or non-inflammatory media without LPS (“−LPS”). Another method utilized the absence or presence of a cocktail of cytokines.
In the first method, bovine or human PBMCs were freshly prepared using Ficoll gradient by Lampire Biological Laboratories, Inc. PBMCs in RPMI w/10% FCS at delivery were spun down at 1500 rpm for twenty minutes and the cell pellet was washed twice with 1×PBS to wash off the residual Ficoll. The cells were then resuspended at a density of 1×10^6/ml in RPMI supplemented with 10% FCS, 1× Antibiotics-Antimycotics. The suspension was divided into two aliquots. One aliquot was stimulated with 10 μg/ml of LPS and the other was not stimulated. Both aliquots were then incubated at 37° C., 5% CO2 for twenty-four to seventy-two hours. The conditioned media with or without LPS stimulation are collected, aliquoted, and stored in −80° C. for a maximum of three months. Each conditioned medium was assessed for levels of pro-inflammatory cytokines to ensure their secretion from PBMC. A representative cytokine, IL-6, was assayed by ELISA using a Human IL-6 Quantikine kit and it was shown that the LPS-stimulated medium had at least 10 ng/ml of IL-6, while IL-6 was undetectable in the unstimulated medium.
In the second method, the explants were cultured at 37° C., 5% CO2 either in stimulated or non-stimulated conditioned medium as described above or in defined medium containing DMEM supplemented with 1% FCS, 1× insulin-transferrin-sodium selenite media supplement and Antibiotics-Antimycotics in the presence or absence of a cocktail of cytokines containing 10 ng/ml of IL-1β, 100 ng/ml of TNFα and 5 ng/ml of IFN-γ. The compounds were solubilized in H2O, Ethanol or DMSO (10^−2 M) according to suppliers' instructions and further diluted with either conditioned medium stimulated with or without LPS to the required concentrations. DMSO concentrations in the culture media never exceeded 1%. […]

[1] = Bos taurus, injured cartilage explants

CC(=O)Oc1cccc2c1C(=O)c1c(OC(C)=O)cc(C(=O)O)cc1C2=O [Diacerein, reference compound]
inhibition at 54 µM (Bos taurus, at 54 μM, injured cartilage explants): 100%
proteoglycan degradation in injured cartilage induced by inflammatory mediators (in words) (at high dosage, LPS-stimulated PBMC conditioned medium, five days): completely inhibited

OCCC#Cc1nc(-c2ccc(F)cc2)c(-c2ccncc2)n1CCCc1ccccc1 [JNJ 3026582 (RWJ 67657), 4-[4-(4-fluorophenyl)-1-(3-phenylpropyl)-5-(4-pyridinyl)-1H-imidazol-2-yl]-3-butyn-1-ol]
Inhibition of GAG degradation (in words): little
efficacy in inhibiting GAG release (in words): little efficacy

C[C@H](Nc1nccc(-c2c(-c3ccc(F)cc3)nc3nc(N)ccn23)n1)c1ccccc1 [JNJ 7583979 (RWJ 351958)]
Inhibition of GAG degradation (in words): little
efficacy in inhibiting GAG release (in words): little efficacy

CO[C@H]1C[C@@H]2CC[C@@H](C)[C@@](O)(O2)C(=O)C(=O)N2CCCC[C@H]2C(=O)O[C@H]([C@H](C)C[C@@H]2CC[C@@H](O)[C@H](OC)C2)CC(=O)[C@H](C)/C=C(\C)[C@@H](O)[C@@H](OC)C(=O)[C@H](C)C[C@H](C)/C=C/C=C/C=C/1C [Rapamycin, reference compound]
Inhibition of GAG degradation (injured cartilage explants): 100% inh at 0.1-1 μM
inhibition of GAG release vs no treatment explant (five days): ~84%

O=C(O)c1cc(O)c2c(c1)C(=O)c1cccc(O)c1C2=O [Rhein, reference compound]
inhibition at 35 µM (Bos taurus, at 35 μM, injured cartilage explants): 100%

CC(C(=O)O)c1ccc(C(=O)c2cccs2)cc1 (stereo not drawn) [Suprofen, reference compound]
Inhibition of GAG degradation (injured cartilage explants): 100% inh at 0.1-1 μM

COc1ccc(-n2nc(CCC(=O)N(C)O)cc2-c2ccc(Cl)cc2)cc1 [Tepoxalin, reference compound]
inhibition at 10 µM [1]: 100%

Cc1ccc(C(=O)c2ccc(CC(=O)O)n2C)cc1 [Tolmetin, reference compound]
inhibition at 10 µM [1]: 60%
